Data set [1] can be described thus: Pharmacokinetics in mouse. The settings on record: in vivo. From the text: (§1) In vivo data for (5R,6S)-6-[(1R)-hydroxy ethyl]-2-[4-(1-pyridinio)methylphenyl]oxymethylpenem-3-carboxylate (example 1, Compound 5,FCE 24386)
Data set [2] is described as follows: Pharmacokinetics in rat. The settings on record: in vivo.
Excerpt: as §1

Data set [3] deals with Staphilococcus aureus Smith. The experiment in a line: Experimental infection in mice, Staphilococcus aureus Smith. In kind it is in vivo, Staphilococcus aureus Smith (infected mice). The settings on record: Mus musculus, intraperitoneal infection, 3 × LD50 challenge, treatments at 30, 90 and 360 minutes after infection. The method, then:
(§2) ^1 Intraperitoneal infection in mice with a 3 × LD50
(§3) challenge; treatments at 30, 90 and 360 minutes after infection.

The test system of data set [4] is Escherichia coli G II. The experiment in a line: Experimental infection in mice, Escherichia coli G II. It is filed as in vivo, Escherichia coli G II (infected mice). The settings on record: intraperitoneal infection, 3 × LD50 challenge, treatments at 30, 90 and 360 minutes after infection. As to the method: as §2, §3

SMILES strings stand for the structures.

On to `C[C@@H](O)[C@H]1C(=O)N2C(C(=O)[O-])=C(COc3ccc(C[n+]4ccccc4)cc3)S[C@H]12` [Compound 5, (5R,6S)-6-[(1R)-hydroxyethyl]-2-[4-(1-pyridinio)methylphenyl]oxymethylpenem-3-carboxylate], for which the Fa in data set [1] (sc, Mouse, s.c., read-out: % Absorption s.c.) turned out to be 100%. Besides, the AUC in data set [1] (mouse) is 56000 ng·h/mL; in data set [2], 103000 ng·h/mL. Further, the half-life in data set [1] (mouse, read-out: t 1/2β) amounted to 27 min; in data set [2] (read-out: t 1/2β) it was 28 min. Moreover, the ED50 in data set [3] was under 0.032 mg/kg; in data set [4], 1.55 mg/kg.

The record behind these values is patent US4886793A, “Penem derivatives” (Farmitalia Carlo Erba, S.r.l., priority 1986, dated 1989).
